Test results reported in paper PMC10989010, “A panel of janus kinase inhibitors identified with anti-inflammatory effects protect mice from lethal influenza virus infection” (Antimicrobial Agents and Chemotherapy, 2024).
Where a name gives a salt, the structure may show the parent alone.

Legend:
PR8 virus = experiment: Neutralization assay of mouse sera; type: in vivo, BALB/c mice; conditions: for neutralizing antibody titer: 50 TCID50 PR8, 20 mg/kg
Procedure: The neutralization assay was performed to determine the neutralizing titers of sera obtained from mice infected with influenza virus. The procedure involved diluting the sera and subsequently heat-inactivating it at 56℃ for 30 minutes, followed by its combination with 100 TCID50 PR8 virus and incubation at 37℃ for 1 hour. The mixture was added to pre-seeded MDCK cells and incubated at 37℃ for 1 hour. Subsequently, the medium was replaced with fresh DMEM and further cultured at 37℃ for 24 hours. Virus production in the supernatant was quantified by assessing virus neuraminidase activity on a black opaque 96-well plate (PerkinElmer, 6005270) using a substrate of 20 µM 2'-(4-methylumbelliferyl)-α-D-N-acetylneuraminic acid (MUNANA, Sigma, M8639) dissolved in MES solution [33 mmol/L 2-(N-morpholino) ethanesulfonic acid and 4 mmol/L CaCl2, pH = 6.5]. The reaction mixture was then incubated at 37℃ for an additional period of 2 hours. The reaction was terminated by the addition of a stop solution (0.14 mol/L NaOH in 83% ethanol). Fluorescence intensity was measured using multimode plate readers (Varioskan Lux, Thermoscientific, USA) with an excitation wavelength of 355 nm and an emission wavelength of 485 nm. The relative virus production was determined based on the fluorescence intensity, which correlated to the cleavage of MUNANA by viral neuraminidase. The serum neutralization titer, representing the dilution fold of serum required to achieve 50% virus neutralization, was determined using Graphpad software ([47]).

IP-10 = experiment: cells; type: cell-based, human; conditions: Homo sapiens, U-937, 72 h, read-out: IC50 IP-10
[1] = tested on: influenza virus-specific IgG; experiment: Influenza virus-specific IgG in mouse serum (ELISA); type: in vivo, BALB/c mice; conditions: 50 TCID50 PR8, 20 mg/kg twice daily for 5 days from 3 dpi, versus untreated
Procedure: The PR8 virus was purified and inactivated using β-Propiolactone (CAS: 57–57-8, MCE) at a 1:3,000 (vol/vol) ratio. The inactivated PR8 virus (2 µg in each well) was then coated onto a 96-well ELISA plate (Corning, USA) and left overnight at 4℃. Afterward, the plate was washed three times and blocked with 5% skimmed milk for 1 hour at 37℃. The plate was washed again three times and then incubated with 100 µL of serial diluted sera at 37 ℃ for 2 hours. Next, the plate was washed three times and incubated with 100 µL of 1,000-fold diluted (horseradish peroxidase) HRP-conjugated affinipure goat ant-mouse IgG (H + L; SA00001-1, Proteintech) at 37℃ for 1 hour. After washing the plate four times, 100 µL of TMB (3, 3', 5, 5'-tetramethylbenzidine) substrate was added to each well until the solutions turned blue, and then 50 µL of 2M H2SO4 was added to stop the reaction. Finally, the absorbance was read at OD450 nm using the Varioskan LUX multimode microplate reader (Thermo Scientific, Waltham, MA, USA) ([47]).

**Q.** What does the source list for CNS(=O)(=O)C[C@H]1CC[C@H](N(C)c2ncnc3[nH]ccc23)CC1 [Oclacitinib maleate]?
**A.** change in neutralization antibody titers compared to untreated mice (PR8 virus; 14 dpi): slight decrease; change in neutralization antibody titers compared to untreated mice (PR8 virus; 21 dpi): no difference; neutralizing antibody titer (PR8 virus; 7 dpi): 177; neutralizing antibody titer (PR8 virus; 14 dpi): 690; neutralizing antibody titer (PR8 virus; 21 dpi): 1,087; IC50 (IP-10): 0.18 µM; serum influenza virus-specific IgG production ([1]; 7 dpi): significantly suppressed; serum influenza virus-specific IgG production ([1]; 14 and 21 dpi): slight suppression
